Like-named read-outs stand apart in the source and are kept apart here.
B1: UDA: reference substance in Table 4, not defined in the text (protein, UniProt P11218 24-372, looked up)
Lectin/endochitinase 1: QRCGSQGGGGTCPALWCCSIWGWCGDSEPYCGRTCENKCWSGERSDHRCGAAVGNPPCGQDRCCSVHGWCGGGNDYCSGSKCQYRCSSSVRGPRVALSGNSTANSIGNVVVTEPLFDQMFSHRKDCPSQGFYSYHSFLVAAESFPAFGTIGDVATRKREVAAFLAHISQATSGERSDVENPHAWGLCHINTTTVTENDFCTSSDWPCAAGKKYSPRGPIQLTHNFNYGLAGQAIGEDLIQNPDLVEKDPIISFKTALWFWMSQHDNKPSCHDIVLNANSAANRIPNKGVIGNIISRAFGHDDFAVRSSSIGFYKRYCDMLGVSYGHDLKYWFDNTPSSEFQRIQMRVAA

How the values were obtained:
MDCK cells [1] = assay: Cytotoxicity in MDCK cell cultures; assay type: cell-based, canine
in vitro = conditions: dog
Vaccinia virus = assay: microbe, parasite or virus in culture; assay type: cell-based; conditions: Orthopoxvirus vaccinia, HEL, read-out: EC50 Vaccinia virus
HEL cell cultures = conditions: human
[2] = system: Vesicular stomatitis virus; assay: microbe, parasite or virus in culture; assay type: cell-based; conditions: HEL, read-out: EC50 Vesicular stomatitis virus
Feline Herpes Virus = assay: Anti-Feline Herpes Virus activity in CRFK cell cultures; assay type: cell-based; conditions: for EC50: CRFK, read-out: EC50 Feline Herpes Virus
Para influenza-3 virus = assay: organism not typed; assay type: cell-based; conditions: Vero, read-out: EC50 Para influenza-3 virus
HeLa cell cultures = conditions: human
Reovirus-1 = assay: organism not typed; assay type: cell-based; conditions: Vero, read-out: EC50 Reovirus-1
Vero cell cultures = conditions: African green monkey
[3] = system: Herpes simplex virus-2 (G); assay: microbe, parasite or virus in culture; assay type: cell-based
[4] = system: Herpes simplex virus-1 TK- KOS ACVr; assay type: cell-based
[5] = system: Herpes simplex virus-1 (KOS); assay: microbe, parasite or virus in culture; assay type: cell-based
Influenza B = assay: microbe, parasite or virus in culture; assay type: cell-based
MDCK cells [6] = system: MDCK cells
[7] = system: Feline Corona Virus (FIPV); assay: Anti-Feline Corona Virus activity in CRFK cell cultures; assay type: cell-based; conditions: MTS assay
[8] = microscopically detectable alteration of normal cell morphology

Molecule | Minimum cytotoxic concentration (HEL cell cultures) | EC50 (Feline Herpes Virus) | EC50 (Para influenza-3 virus) | EC50 (Reovirus-1) | Minimum cytotoxic concentration (Vero cell cultures) [µg/mL] | other results
NC12CC3CC(CC(C3)C1)C2 [Amantadin, reference compound] | – | – | – | – | – | Cytotoxicity Minimum cytotoxic concentration (MDCK cells [1]; reference compounds): >1000 µM; CC50 (in vitro): > 1000 µM
Nc1nc(O)c2ncn(COC(CO)CO)c2n1 [Ganciclovir, reference compound] | >100 µM | 0.8 µM | – | – | – | EC50 (Vaccinia virus): > 100 µM; EC50 [2]: > 100 µM
O=c1c2ccccc2nc(-c2ccccc2)n1/N=C/c1ccc(O)cc1 [Compound 2g, 3-[(4-Hydroxy-benzylidine)-amino]-2-phenyl-3H-quinazolin-4one] | 100 µg/mL | > 20 µg/mL | > 20 µg/mL | > 20 µg/mL | 100 | Minimum cytotoxic concentration (HeLa cell cultures): 100 µg/mL
Nc1ncnc2c1ncn2C[C@H](O)CO [(S)-DHPA, reference compound] | – | – | > 250 µM | > 250 µM | – | –
CC(N)C12CC3CC(CC(C3)C1)C2 (stereo not shown) [Rimantadin] | – | – | – | – | – | CC50 (in vitro): 472 µM
C/C(=N\n1c(-c2ccccc2)nc2ccccc2c1=O)c1ccc(O)cc1 [Compound 2i, 3-[1-(4-Hydroxy-phenyl)-ethylideneamino]-2-phenyl-3H-quinazolin-4one] | >100 µg/mL | > 100 µg/mL | > 100 µg/mL | > 100 µg/mL | >100 | Minimum cytotoxic concentration (HeLa cell cultures): >100 µg/mL; Cytotoxicity Minimum cytotoxic concentration (MDCK cells [1]; [8]): >100 µg/mL
O=c1c2ccccc2nc(-c2ccccc2)n1/N=C/c1ccccc1 [Compound 2f, 3-(Benzylidine-amino)-2-phenyl-3H-quinazolin-4one] | – | > 0.8 µg/mL | > 4 µg/mL | > 4 µg/mL | – | –
COc1ccccc1/C=N/n1c(-c2ccccc2)nc2ccccc2c1=O [Compound 2l, 3-[(2-Methoxy-benzylidine)-amino]-2-phenyl-3H-quinazolin-4one] | 100 µg/mL | > 4 µg/mL | > 20 µg/mL | > 20 µg/mL | 100 | –
COc1ccc(/C=N/n2c(-c3ccccc3)nc3ccccc3c2=O)cc1O [Compound 2k, 3-[(3-Hydroxy-4-methoxy-benzylidine)-amino]-2-phenyl-3H-quinazolin-4one] | 100 µg/mL | > 20 µg/mL | > 20 µg/mL | > 20 µg/mL | 100 | –
O=c1c2ccccc2nc(-c2ccccc2)n1/N=C/c1ccccc1O [Compound 2a, 3-[(2-Hydroxy-benzylidine)-amino]-2-phenyl-3H-quinazolin-4one] | 100 µg/mL | > 4 µg/mL | > 20 µg/mL | – | 100 | selectivity index, herpes simplex virus-2 (G) [3]: 100; selectivity index, herpes simplex virus-1 TK- KOS ACVr [4]: 100; selectivity index, herpes simplex virus-1 (KOS) [5]: 100; Cytotoxicity Minimum cytotoxic concentration (MDCK cells [1]; [8]): ≥0.8 µg/mL
C/C(=N\n1c(-c2ccccc2)nc2ccccc2c1=O)c1ccccc1 [Compound 2h, 2-Phenyl-3(1-phenyl-ethylideneamino)-3H-quinazolin-4one] | >100 µg/mL | > 0.8 µg/mL | > 20 µg/mL | > 20 µg/mL | 100 | Minimum cytotoxic concentration (HeLa cell cultures): >100 µg/mL; Cytotoxicity Minimum cytotoxic concentration (MDCK cells [1]; [8]): 100 µg/mL
COc1ccc(/C=N/n2c(-c3ccccc3)nc3ccccc3c2=O)cc1 [Compound 2c, 3-[(4-Methoxy-benzylidine)-amino]-2-phenyl-3H-quinazolin-4one] | – | > 4 µg/mL | > 20 µg/mL | > 20 µg/mL | 100 | –
NC(=O)c1ncn([C@@H]2O[C@H](CO)[C@@H](O)[C@H]2O)n1 [Ribavirin, reference compound] | – | – | – | > 250 µM | – | EC50 (Vaccinia virus): > 250 µM; EC50 ([3]; Human alphaherpesvirus 2, HEL, read-out: EC50 Herpes simplex virus-2 (G)): > 250 µM; EC50 ([5]; Human alphaherpesvirus 1, HEL, read-out: EC50 Herpes simplex virus-1 (KOS)): > 250 µM; EC50 (Influenza B; Influenza B virus, MDCK, read-out: Antiviral EC50 Influenza B Visual CPE score): 9 µM; Cytotoxicity Minimum cytotoxic concentration (MDCK cells [1]; reference compounds): ≥100 µM
Oseltamivir carboxylate | – | – | – | – | – | EC50 (Influenza B; read-out: Antiviral EC50 Influenza B MTS, […], MTS assay, reference compounds): 1.5 µM; Cytotoxicity Minimum cytotoxic concentration (MDCK cells [1]; reference compounds): >100 µM; CC50 (MDCK cells [6]): > 100 µM
O=c1c2ccccc2nc(-c2ccccc2)n1/N=C/c1ccc(Cl)cc1 [Compound 2j, 3-[(4-Chloro-benzylidine)-amino]-2-phenyl-3H-quinazolin-4one] | 100 µg/mL | > 20 µg/mL | > 4 µg/mL | > 4 µg/mL | – | –
O=c1c2ccccc2nc(-c2ccccc2)n1/N=C/c1cccc([N+](=O)[O-])c1 [Compound 2b, 3-[(3-Nitro-benzylidine)-amino]-2-phenyl-3H-quinazolin-4one] | ≥20 µg/mL | > 4 µg/mL | > 4 µg/mL | > 4 µg/mL | – | –
B1 | – | – | – | – | – | EC50 Feline Corona Virus (FIPV) [7]: 11.7 µg/mL; EC50 Feline Herpes Virus (Feline Herpes Virus; CRFK cell cultures, MTS assay): 53.1 µg/mL

— article PMC7115544 (European Journal of Medicinal Chemistry, 2010)
